Assay results taken from ChEMBL document CHEMBL5244212, “Recent advances in the rational design and development of LIM kinase inhibitors are not enough to enter clinical trials” (Eur J Med Chem, 2018).

Legend:
Homo sapiens = species on record: Homo sapiens; experiment: Selectivity index, ratio of IC50 for ROCK2 (unknown origin) to IC50 for PKA (unknown origin)
[1] = molecular target: cAMP-dependent protein kinase (PKA) (Homo sapiens) (UniProt P22694+P17612+P22612); experiment: Inhibition of PKA (unknown origin) assessed as fold increase; assay type: protein assay
MDA-MB-231 = experiment: Cytotoxicity against human MDA-MB-231 cells assessed as reduction in cell viability incubated for 96 hrs at 3 uM by MTT method relative to control; assay type: functional
[2] = molecular target: Rho-associated protein kinase 2 (Homo sapiens, UniProt O75116); experiment: Inhibition of human recombinant ROCK2 by ADP glo kinase assay
Rho-associated protein kinase 2, sequence (O75116 whole entry): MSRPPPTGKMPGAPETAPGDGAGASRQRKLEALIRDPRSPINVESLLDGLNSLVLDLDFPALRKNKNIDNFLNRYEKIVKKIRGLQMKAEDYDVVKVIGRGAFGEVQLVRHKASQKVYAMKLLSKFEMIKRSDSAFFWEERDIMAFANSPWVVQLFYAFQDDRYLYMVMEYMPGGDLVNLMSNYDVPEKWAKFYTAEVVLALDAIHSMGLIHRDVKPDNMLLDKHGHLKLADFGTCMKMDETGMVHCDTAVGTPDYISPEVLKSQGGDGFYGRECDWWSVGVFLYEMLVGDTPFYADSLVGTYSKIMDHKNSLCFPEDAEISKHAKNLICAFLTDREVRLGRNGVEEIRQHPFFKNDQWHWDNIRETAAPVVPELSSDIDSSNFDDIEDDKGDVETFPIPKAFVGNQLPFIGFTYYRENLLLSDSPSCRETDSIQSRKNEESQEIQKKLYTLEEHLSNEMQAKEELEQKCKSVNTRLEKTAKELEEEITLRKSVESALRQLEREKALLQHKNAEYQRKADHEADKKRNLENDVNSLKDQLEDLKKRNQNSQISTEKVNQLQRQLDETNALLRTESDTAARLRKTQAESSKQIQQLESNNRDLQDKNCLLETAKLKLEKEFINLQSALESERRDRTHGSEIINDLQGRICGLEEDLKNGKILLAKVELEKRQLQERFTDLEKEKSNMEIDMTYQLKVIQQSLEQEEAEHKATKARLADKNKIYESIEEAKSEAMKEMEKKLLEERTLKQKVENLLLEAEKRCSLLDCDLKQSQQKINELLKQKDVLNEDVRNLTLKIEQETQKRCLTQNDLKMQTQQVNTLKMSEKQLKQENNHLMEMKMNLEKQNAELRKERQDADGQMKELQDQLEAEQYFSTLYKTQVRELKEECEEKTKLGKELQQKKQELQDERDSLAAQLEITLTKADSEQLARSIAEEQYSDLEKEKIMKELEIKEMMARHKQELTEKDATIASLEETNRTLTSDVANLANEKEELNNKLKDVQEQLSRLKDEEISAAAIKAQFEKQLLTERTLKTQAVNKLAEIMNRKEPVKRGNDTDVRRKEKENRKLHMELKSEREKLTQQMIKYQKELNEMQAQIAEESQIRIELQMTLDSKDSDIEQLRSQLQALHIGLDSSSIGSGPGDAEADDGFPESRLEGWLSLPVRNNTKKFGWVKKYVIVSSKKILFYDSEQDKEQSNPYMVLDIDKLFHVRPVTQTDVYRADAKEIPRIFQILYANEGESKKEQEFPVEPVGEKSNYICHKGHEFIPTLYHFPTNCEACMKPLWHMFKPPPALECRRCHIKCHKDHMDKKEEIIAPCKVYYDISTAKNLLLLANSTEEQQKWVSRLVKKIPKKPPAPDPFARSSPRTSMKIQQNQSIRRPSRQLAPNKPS

[3] = Half life in rat, iv at 1 mg/kg; assay type: ADME, organism-based; conditions: in vivo
LIM domain kinase 1 [4] = molecular target: T1, LIM domain kinase 1 (Homo sapiens, UniProt P53667); experiment: Inhibition of LIMK1 (unknown origin)
Target sequence in this assay (P53667 whole entry, the tested form may be a part): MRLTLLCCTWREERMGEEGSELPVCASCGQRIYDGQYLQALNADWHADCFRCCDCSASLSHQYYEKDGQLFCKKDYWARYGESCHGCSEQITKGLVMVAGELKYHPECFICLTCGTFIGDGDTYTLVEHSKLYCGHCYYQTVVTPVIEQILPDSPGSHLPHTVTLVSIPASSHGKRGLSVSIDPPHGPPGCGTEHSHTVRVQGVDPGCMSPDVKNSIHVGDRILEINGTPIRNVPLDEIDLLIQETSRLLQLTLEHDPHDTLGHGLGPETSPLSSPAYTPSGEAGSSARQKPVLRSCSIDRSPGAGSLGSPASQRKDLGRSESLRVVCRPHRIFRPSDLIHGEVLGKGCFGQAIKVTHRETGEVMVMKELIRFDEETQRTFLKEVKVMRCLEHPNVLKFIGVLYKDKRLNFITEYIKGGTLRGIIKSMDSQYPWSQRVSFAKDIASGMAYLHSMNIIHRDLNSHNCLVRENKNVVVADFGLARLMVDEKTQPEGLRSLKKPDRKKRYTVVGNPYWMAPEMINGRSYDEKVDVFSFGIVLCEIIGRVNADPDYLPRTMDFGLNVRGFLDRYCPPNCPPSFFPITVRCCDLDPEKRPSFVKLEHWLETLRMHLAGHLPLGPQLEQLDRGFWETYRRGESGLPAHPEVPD

LIM domain kinase 2 [5] = molecular target: T2, LIM domain kinase 2 (Homo sapiens, UniProt P53671); experiment: Inhibition of LIMK2 (unknown origin)
T2 sequence (P53671 whole entry, the tested form may be a part): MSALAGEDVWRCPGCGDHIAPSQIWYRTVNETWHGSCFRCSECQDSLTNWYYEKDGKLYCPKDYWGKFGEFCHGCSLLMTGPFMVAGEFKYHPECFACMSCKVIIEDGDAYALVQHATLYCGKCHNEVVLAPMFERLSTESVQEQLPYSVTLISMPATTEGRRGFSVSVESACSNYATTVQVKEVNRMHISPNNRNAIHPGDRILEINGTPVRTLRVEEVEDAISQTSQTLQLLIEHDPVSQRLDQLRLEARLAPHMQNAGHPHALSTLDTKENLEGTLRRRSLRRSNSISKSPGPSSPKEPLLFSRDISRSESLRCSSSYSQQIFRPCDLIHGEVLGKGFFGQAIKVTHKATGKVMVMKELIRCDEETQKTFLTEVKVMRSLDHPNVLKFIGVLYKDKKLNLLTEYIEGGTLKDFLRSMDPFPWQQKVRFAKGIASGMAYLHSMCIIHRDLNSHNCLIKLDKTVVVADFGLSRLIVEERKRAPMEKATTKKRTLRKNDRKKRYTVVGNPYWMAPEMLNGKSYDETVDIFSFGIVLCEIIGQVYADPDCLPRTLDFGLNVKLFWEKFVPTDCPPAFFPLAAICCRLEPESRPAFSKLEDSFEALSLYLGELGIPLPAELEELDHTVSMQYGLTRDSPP

LIM domain kinase 2 [6] = molecular target: T2, LIM domain kinase 2; experiment: Inhibition of LIMK2 (unknown origin) in presence of ATP at 200 uM
PANC-1 [7] = experiment: Cytotoxicity against human PANC-1 cells assessed as reduction in cell growth relative to control; assay type: functional; set-up: scale not given: the % may be the effect or the level left
PANC-1 [8] = experiment: Anti-tumor activity against human PANC-1 cells xenografted in athymic nude mouse assessed as reduction in tumor growth at 100 mg/kg, ip measured after 35 days relative to control; assay type: functional; set-up: scale not given: the % may be the effect or the level left; conditions: time 35 day
LIM domain kinase 2 [9] = molecular target: T2, LIM domain kinase 2; experiment: Inhibition of human recombinant LIMK2
LIM domain kinase 1 [10] = molecular target: T1, LIM domain kinase 1; experiment: Inhibition of human recombinant LIMK1
Target sequence in this assay (P53667 whole entry, the tested form may be a part): as the sequence (P53667 whole entry, the tested form may be a part) above

cells = conditions: Mus musculus, NF-1
Description: Cytotoxicity against mouse NF-1 cells assessed as reduction in cell growth

LIM domain kinase 1 [11] = molecular target: T1, LIM domain kinase 1; experiment: Inhibition of human LIMK1 (321 to 647 residues) expressed in Sf9 cells using […] as substrate incubated for 30 mins by micro-scintillation fluid method
Target sequence in this assay (P53667 whole entry, the tested form may be a part): as above

LIM domain kinase 1 [12] = molecular target: T1, LIM domain kinase 1; experiment: Inhibition of human LIMK1 (312 to 638 residues) expressed in Sf9 cells using […] as substrate incubated for 30 mins by micro-scintillation fluid method
Target sequence in this assay (P53667 whole entry, looked up, the tested form may be a part): as the sequence (P53667 whole entry, the tested form may be a part) above

[13] = Inhibition of AbI (unknown origin); set-up: species or system Homo sapiens
LIM domain kinase 2 [14] = molecular target: T2, LIM domain kinase 2; experiment: Inhibition of LIMK2 (unknown origin) in presence of ATP at 25 uM
[15] = tested on: Human immunodeficiency virus; experiment: Antiviral activity against HIV at 1 uM relative to control; assay type: functional
[16] = tested on: Human immunodeficiency virus; experiment: Antiviral activity against HIV at 10 uM relative to control; assay type: functional
[17] = tested on: Human immunodeficiency virus; experiment: Antiviral activity against HIV at 100 uM relative to control; assay type: functional
LIM domain kinase 1 [18] = molecular target: T1, LIM domain kinase 1; experiment: Inhibition of LIMK1 (unknown origin) phosphorylation of cofilin
Target sequence in this assay (P53667 whole entry, the tested form may be a part): as above

Mus musculus = species on record: Mus musculus; experiment: Antiglaucoma activity in ocular […] mouse assessed as reduction in intraocular pressure at 15 ug measured after 4 hrs; assay type: functional; conditions: dose 15 µg

CN(C)C(=O)Oc1cccc(NC(=O)C2(CN)CCN(c3ncnc4[nH]c5c(c34)CCCC5)CC2)c1
Selectivity Index (Homo sapiens): 1 | fold change (FC) [1]: 0.7

CC(C)CNc1ncc(-c2ccncc2-c2ccccc2Cl)s1
Activity (MDA-MB-231): 70%

Cc1c[nH]c2ncnc(-c3ccc(NC(=O)Nc4cccc(C(=O)NC(C)C)c4)cc3F)c12
IC50 [2]: 18 nM

Cc1c[nH]c2ncnc(-c3ccc(NC(=O)N(CCN(C)C)c4ccc(Cl)cc4)cc3)c12
half-life [3]: 6 h

COc1cc(-c2nn(C3CCC(N4CCN(C)CC4)CC3)c3ncnc(N)c23)ccc1NC(=O)OCc1ccccc1 (configuration not stated)
IC50 (LIM domain kinase 1 [4]): 900 nM | IC50 (LIM domain kinase 2 [5]): 800 nM

Cc1[nH]c2ncnc(N3CCC(CN)(C(=O)Nc4cccc(OC(=O)N(C)C)c4)CC3)c2c1C
IC50 (LIM domain kinase 1 [4]): 23 nM

COC(=O)Cc1cccc(NC(=O)C2(CN)CCN(c3ncnc4[nH]c5c(c34)CC(F)CC5)CC2)c1 (configuration not stated)
IC50 (LIM domain kinase 2 [6]): < 0.1 nM

Cc1cc(C(=O)Nc2cccc(C(=O)Nc3cccc(C(F)(F)F)c3)c2)on1
Activity (PANC-1 [7]): 46% | Activity (PANC-1 [8]): 80%

CN(C)C1(C(=O)Nc2cccc(-c3ccccc3)c2)CCN(c2ncnc3[nH]c4c(c23)CCCC4)CC1
IC50 (LIM domain kinase 2 [5]): 0.1 nM

Cc1c2cc[nH]c(=O)c2c(C)c2c1[nH]c1ccc(OC(=O)c3ccccc3)cc12
IC50 (LIM domain kinase 2 [9]): 75 nM | IC50 (LIM domain kinase 1 [10]): 50 nM

CC(C)C(=O)Nc1ncc(-c2cc(C(F)F)nn2-c2c(Cl)cccc2Cl)s1
EC50 (cells): 30000 nM

O=C(Nc1ncc(-c2cc(C(F)F)nn2-c2c(Cl)cccc2Cl)s1)C1CC1
IC50 (LIM domain kinase 1 [11]): 5 nM | IC50 (LIM domain kinase 1 [12]): 6 nM

CN(Cc1ccccc1)C(=O)c1ccc(S(=O)(=O)Nc2ccccc2)cc1
IC50 [13]: 6 nM

Cc1c[nH]c2ncnc(N3CCC(C(=O)Nc4cccc(OC(=O)N(C)C)c4)C(C)C3)c12 (configuration not stated)
IC50 (LIM domain kinase 2 [14]): 210 nM

COC(=O)c1ccc2[nH]c(C3CCN(c4ncnc5[nH]cc(Cl)c45)CC3)nc2c1
Activity [15]: 50% | Activity [16]: 70% | Activity [17]: 80%

Cc1c[nH]c2ncnc(N3CCC(C(=O)Nc4cccc(OC(=O)N(C)C)c4)[C@@H](C)C3)c12 (some centres not stated)
IC50 (LIM domain kinase 2 [14]): 110 nM

COCCN(C(=O)Nc1ccc(-c2ncnc3[nH]c(C)c(C)c23)c(F)c1)c1ccc(Cl)cc1
IC50 (LIM domain kinase 1 [18]): 8 nM

O=C(CC1CCCN1)Nc1ncc(-c2cc(C(F)F)nn2-c2c(Cl)cccc2Cl)s1 (configuration not stated)
Activity (Mus musculus): 5 mmHg

Cc1c[nH]c2ncnc(N3CCN(C(=O)Nc4cccc(OC(=O)N(C)C)c4)[C@@H](C)C3)c12
Activity (Mus musculus): 3 mmHg

Cc1ccc(-c2cnccc2-c2cnc(Nc3ccc(O)cc3)s2)c(Cl)c1
Activity (MDA-MB-231): 96%
